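48-hour exposure; five concentrations; linearly interpolated endpoints. GI50 is the concentration that inhibits growth by half. TGI: total growth inhibition.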
Key:
Test in all cases: DTP human tumour cell line panel, 48 h
[1] = system: UO-31 renal
[2] = system: ACHN renal
[3] = system: IGROV1 ovarian
[4] = system: SW-620 colon
[5] = system: HT29 colon
[6] = system: SN12C renal
[7] = system: COLO 205 colon
[8] = system: NCI/ADR-RES ovarian
[9] = system: PC-3 prostate
[10] = system: SK-MEL-2 melanoma

Row | Structure (SMILES) | GI50 [1] [µM] | TGI [1] [µM] | GI50 [2] [µM] | TGI [2] [µM] | GI50 [3] [µM] | TGI [3] [µM] | GI50 [4] [µM] | TGI [4] [µM] | GI50 [5] [µM] | TGI [5] [µM] | GI50 [6] [µM] | TGI [6] [µM] | GI50 [7] [µM] | TGI [7] [µM] | GI50 [8] [µM] | TGI [8] [µM] | GI50 [9] [µM] | TGI [9] [µM] | GI50 [10] [µM] | TGI [10] [µM]
1 | COc1ccc(CN2c3ccccc3CCc3ccccc32)cc1F | 0.814 | > 100 | 0.604 | > 100 | 1.57 | > 100 | 0.386 | > 100 | 0.32 | 1.9 | 1.95 | > 100 | 0.335 | 1.39 | 0.456 | > 100 | 0.489 | > 100 |  | 
2 | COC(=O)C1=C(C(=O)OC)SC(=C(Cl)C(=S)Sc2ccccc2N)S1 | 27 | > 100 | 22.7 | 49.7 |  |  | 55.4 | > 100 | 93.9 | > 100 | 20.5 | 59.4 | 34.8 | > 100 | 25.5 | 62.1 | 29.6 | > 100 | 14.2 | 43.6
3 | O=S1(=O)c2ccccc2NC(=S)CC1c1ccccc1 (centres undefined) |  | > 100 |  | > 100 |  | > 100 |  |  |  | > 100 |  | > 100 |  | > 100 |  | > 100 |  | > 100 |  | 
4 | COC(=O)C1=C(CS(=O)c2ccccc2[N+](=O)[O-])ON(C)C1c1ccccc1 (centres undefined) |  | > 100 |  | > 100 |  | > 100 |  | 88.6 |  | > 100 |  | 42.6 |  | > 100 |  |  |  |  |  | > 100
5 | CC1(C)C2CCC3(C2)CS(=O)(=O)N2OC231 (centres undefined) |  | 31.3 |  | 29.4 |  | 43.4 |  | 32.9 |  | 31.8 |  | 31.6 |  | 32.9 |  |  |  |  |  | 39.3
6 | Cc1c(Cl)cccc1NC(=O)CC1C(=O)Nc2ccccc2S1(=O)=O (centres undefined) |  | 32.1 |  | 31.5 |  | 31.7 |  | 43.7 |  | 38.2 |  | 31.9 |  |  |  |  |  |  |  | 45.9
7 | CC(=O)Nc1ccc(S(=O)(=O)NNC(=O)c2cccnc2Nc2ccc(Cl)cc2)cc1 | 91.5 | > 100 | 52.2 | > 100 | 27.3 | > 100 | 7.64 | > 100 | 4 | > 100 | 59.3 | > 100 | 10.3 | 57 |  |  | 29.2 | > 100 |  | 
8 | CCOC(=O)CC1NC(=O)CS1 (centres undefined) |  | > 100 |  | > 100 |  | > 100 |  | 37.4 |  | > 100 |  | > 100 |  | 16.3 |  |  |  |  |  | 
9 | CN1C(=O)C(Cl)(C(Cl)(Cl)S(=O)(=O)O)C(=O)c2ccccc21 (centres undefined) |  | > 100 |  | > 100 |  | > 100 |  | > 100 |  | 73 |  | > 100 |  | > 100 |  |  |  |  |  | 
10 | N#CC(NNC(=O)c1ccccc1O)c1cccc(O)c1 (centres undefined) |  | 5.63 |  | > 100 |  | > 100 |  | > 100 |  | > 100 |  | > 100 |  | > 100 |  |  |  |  |  | > 100
11 | O=c1[nH]c2cc3[nH]c4ncccc4c(=O)c3cc2[nH]1 |  |  |  | > 10 |  | > 10 |  | > 10 |  | > 10 |  | > 10 |  | > 10 |  | > 10 |  | > 10 |  | > 10
12 | O=C1C2Cc3ccccc3CN2C(=O)N1CCN1CCCC1 (centres undefined) |  | > 100 |  | > 100 |  | > 100 |  | > 100 |  |  |  | > 100 |  | > 100 |  |  |  |  |  | > 100
13 | COC(=O)c1nc(N)[nH]c(=O)c1CCCCCc1c(C(=O)OC)nc(N)[nH]c1=O |  | > 50 |  | > 50 |  | > 50 |  | > 50 |  | > 50 |  | > 50 |  | > 50 |  |  |  |  |  | > 50
14 | CCN(CC)c1ccc2c(c1)Nc1cc(=C(C#N)C#N)c3ccccc3c1=N2 |  | > 100 |  | > 100 |  | > 100 |  | > 100 |  | > 100 |  | > 100 |  | > 100 |  |  |  |  |  | > 100
15 | CCOC(=O)C(=O)Nc1c(C(C)C)cccc1C(C)C |  | > 100 |  | > 100 |  | > 100 |  | > 100 |  | > 100 |  | > 100 |  | > 100 |  |  |  |  |  | > 100
16 | Cc1c2cc[n+](C)cc2c(C)c2c1[nH]c1ccc(O)c(OCC(F)(F)F)c12 |  | 25.6 |  |  |  | 23.1 |  | > 55 |  | > 55 |  | 4.11 |  | 12.6 |  |  |  |  |  | 17.6
17 | O=[N+]([O-])c1ccc2c(c1)[O][Sn]([I])([I])[O]2 | > 100 | > 100 | > 100 | > 100 | > 100 | > 100 | > 100 | > 100 | > 100 | > 100 | > 100 | > 100 |  |  |  |  |  |  | > 100 | > 100
18 | C[C-](O)O.O/C(=C\[C-](O)c1ccccc1)c1ccccc1.O/C(=C\[C-](O)c1ccccc1)c1ccccc1.[Nd+3] (centres undefined) | 3.73 | 16 | 12 | > 100 | 14.1 | > 100 | 6.94 | > 100 | 10.6 | 22.5 | 5.99 |  | 14.7 | 36.3 |  |  |  |  | 13.1 | 34.4
19 | CN=C1SC(=Nc2ccc(N(C)C)cc2)N1C |  | > 100 |  |  |  | > 100 |  | > 100 |  | > 100 |  | > 100 |  | > 100 |  |  |  |  |  | 76.6
20 | CCOC(=O)[C@H]1Nc2ccc(OC)cc2C2c3ccccc3CC21 (some centres undefined) |  | > 100 |  | > 100 |  | > 100 |  | > 100 |  | > 100 |  | > 100 |  | > 100 |  |  |  |  |  | > 100
21 | COc1ccc2c(c1)[n+]([O-])c(/C(C)=N/NC(=O)CC#N)c[n+]2[O-] |  | > 100 |  | > 100 |  | > 100 |  | 25.8 |  | > 100 |  | > 100 |  | > 100 |  |  |  |  |  | > 100

Reference: PubChem BioAssay (NCI)
